The supplement of paper PMC9763283
Structures can show the parent of a compound that is named as a salt.

Columns and labels:
Assay in all cases: area under growth-rate inhibition curve (AUC GRI) (dimensionless (GR-based AUC)); higher = less growth inhibition
Details in all cases: exposure time: 72 h; concentrations: 0.1, 1, 10 uM
BT474-LTR = test system: BT474-LTR
Outline: (§1)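 Six breast cancer cell line models were used: two triple-negative lines, plus parental HER2+ lines and HER2+ lines resistant to a two-drug combination, each plated at an optimised log-phase density and treated with compound at 0.1, 1 or 10 µM for 72 h. After fixation in 4% paraformaldehyde, nuclei were stained with Hoechst 33342 or DAPI, imaged and counted. Growth was corrected using Day 0 plates, untreated Day 3 plates and DMSO controls, with 2 biological replicates. These corrected counts gave the area under the growth-rate inhibition curve.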

BT474-P = test system: BT474-P
Outline: as §1

MDA-MB-231 = test system: MDA-MB-231
Outline: as §1

MDA-MB-468 = test system: MDA-MB-468
Outline: as §1

SKBR3-LTR = test system: SKBR3-LTR
Outline: as §1

SKBR3-P = test system: SKBR3-P
Outline: as §1

| Compound | area under growth-rate inhibition curve (BT474-LTR) | area under growth-rate inhibition curve (BT474-P) | area under growth-rate inhibition curve (MDA-MB-231) | area under growth-rate inhibition curve (MDA-MB-468) | area under growth-rate inhibition curve (SKBR3-LTR) | area under growth-rate inhibition curve (SKBR3-P) |
| --- | --- | --- | --- | --- | --- | --- |
| Cc1cccn2c(=O)c(-c3nnn[n-]3)cnc12.[K+] [Pemirolast Potassium] | 1.05 | 1.04 | 1.05 | 1.04 | 1.05 | 1.03 |
| O=C(c1ccc(F)cc1)N1CCC[C@H](c2nc(-c3ccc(F)cc3)no2)C1 | 1.07 | 1.02 | 1.01 | 1.04 | 1.11 | 1.01 |
| CCC1(c2c[nH]cn2)Cc2ccccc2C1 [Atipamezole hydrochloride] | 1.11 | 1.04 | 1.03 | 1.02 | 1.07 | 0.985 |
| COc1ccc(NS(=O)(=O)c2sc3ccc(Cl)cc3c2C)cc1N1CCNCC1 | 1.03 | 0.976 | 1.05 | 0.964 | 1.05 | 0.997 |
| CN1CC2c3ccccc3Oc3ccc(Cl)cc3C2C1.O=C(O)C=CC(=O)O (stereo unspecified) [Asenapine] | 1.06 | 1.01 | 1.02 | 0.959 | 0.993 | 0.975 |
| O=c1ncnc2[nH][nH]cc1-2 [Allopurinol] | 1.1 | 1.06 | 1.03 | 1.06 | 1.07 | 1.03 |
| Cl.c1ccc2c(CC3=NCCN3)cccc2c1 [Naphazoline HCl] | 1.11 | 1.04 | 1.05 | 1.03 | 1.07 | 1.02 |
| COc1ccc([C@@H]2CC(=O)c3c(O)cc(O)cc3O2)cc1O [Hesperetin] | 1.02 | 1.01 | 1 | 0.996 | 1.02 | 1.03 |
| CC(=O)O[C@]1(C(C)=O)CC[C@H]2[C@@H]3C[C@H](C)C4=CC(=O)CC[C@]4(C)[C@H]3CC[C@@]21C [Medroxyprogesterone acetate] | 1.02 | 0.945 | 1.03 | 1 | 1.01 | 0.953 |
| O=C(CCCN1CCC(O)(c2ccc(Cl)cc2)CC1)c1ccc(F)cc1.[Cl-].[H+] [Haloperidol hydrochloride] | 1.07 | 1.03 | 1.04 | 1.04 | 1.05 | 1.01 |
| CCOc1ccc(Cc2cc([C@@H]3O[C@H](CO)[C@@H](O)[C@H](O)[C@H]3O)ccc2Cl)cc1 [Dapagliflozin] | 1.07 | 1.01 | 1.01 | 1.01 | 1.05 | 1.01 |
| O=C(NCc1ccncc1)C12CC3CC(C1)CC(c1ccc(Cl)cc1)(C3)C2 | 1.08 | 0.985 | 1.04 | 1.01 | 1.04 | 1.02 |
| COc1cc2nc(N3CCN(C(=O)C4COc5ccccc5O4)CC3)nc(N)c2cc1OC.CS(=O)(=O)O (stereo unspecified) [Doxazosin Mesylate] | 1.07 | 0.991 | 0.99 | 0.966 | 1.03 | 0.958 |
| OC(CNCC(O)C1CCc2cc(F)ccc2O1)C1CCc2cc(F)ccc2O1.[Cl-].[H+] (stereo unspecified) [Nebivolol] | 0.88 | 0.882 | 0.874 | 0.805 | 0.853 | 0.938 |
| CC(NCCc1ccc(O)cc1)C(O)c1ccc(O)cc1.[Cl-].[H+] (stereo unspecified) [Ritodrine HCl] | 1.1 | 1.07 | 0.975 | 1.01 | 1.11 | 1.02 |
| CC(C)(C(=O)O)c1ccc(C(O)CCCN2CCC(C(O)(c3ccccc3)c3ccccc3)CC2)cc1.[Cl-].[H+] (stereo unspecified) [Fexofenadine HCl] | 1.01 | 1.03 | 1 | 1.03 | 1.01 | 1.03 |
| CCCC(=O)O[C@]1(C(=O)COC(C)=O)CC[C@H]2[C@@H]3C[C@H](F)C4=CC(=O)C=C[C@]4(C)[C@@]3(F)[C@@H](O)C[C@@]21C [Difluprednate] | 1.02 | 0.976 | 0.975 | 1.03 | 1.04 | 0.939 |
| COc1ccc(C[C@H](C)NC[C@@H](O)c2ccc(O)c(NC=O)c2)cc1.COc1ccc(C[C@H](C)NC[C@@H](O)c2ccc(O)c(NC=O)c2)cc1.O=C(O)/C=C/C(=O)O [Formoterol Hemifumarate] | 1.05 | 1.01 | 0.93 | 1.01 | 1.09 | 1.03 |
| COc1ccc(C(CN(C)C)C2(O)CCCCC2)cc1 (stereo unspecified) [Venlafaxine] | 0.974 | 0.982 | 0.983 | 0.994 | 1.01 | 0.972 |
| Cl.O=C1CC[C@@]2(O)[C@H]3Cc4ccc(O)c5c4[C@@]2(CCN3CC2CC2)[C@H]1O5 [Naltrexone HCl] | 1.09 | 1.05 | 1.03 | 1.04 | 1.06 | 1.05 |
| CCCCc1ncc(C=C(Cc2cccs2)C(=O)O)n1Cc1ccc(C(=O)O)cc1.CS(=O)(=O)O [Eprosartan mesylate] | 1.06 | 1.02 | 1.04 | 1.05 | 1.06 | 1.03 |
| CCN(Cc1ccncc1)C(=O)C(CO)c1ccccc1 (stereo unspecified) [Tropicamide] | 1.09 | 1.05 | 1.02 | 1.01 | 1.07 | 1.01 |
| NCCCCCNCC12CC3CC(CC(C3)C1)C2.[Br-].[Br-].[H+].[H+] [IEM 1754 dihydrobroMide] | 1.07 | 1.01 | 1.04 | 1.03 | 1.04 | 1.03 |
| OC[C@H]1O[C@@H](c2ccc(Cl)c(Cc3ccc(O[C@H]4CCOC4)cc3)c2)[C@H](O)[C@@H](O)[C@@H]1O | 1.07 | 1.03 | 1.03 | 1.05 | 1.09 | 1.03 |
| c1ccc(NCc2ccc(CNc3ccccn3)cc2)nc1 [WZ811] | 1.08 | 1.02 | 1.02 | 1.04 | 1.04 | 1.01 |
| COc1cc2nc(N3CCN(C(=O)C4CCCO4)CC3)nc(N)c2cc1OC.[Cl-].[H+] (stereo unspecified) [Terazosin] | 1.07 | 1.02 | 0.999 | 0.998 | 1.01 | 1.03 |
